pEC50: −log10 of the molar value.
Molecular target: TRPM7 (Mus musculus, UniProt Q923J1)
Assay: Fura-2 Ca2+ imaging in LS8 cells
Assay type: cell-based

TRPM7, sequence (Q923J1 whole entry): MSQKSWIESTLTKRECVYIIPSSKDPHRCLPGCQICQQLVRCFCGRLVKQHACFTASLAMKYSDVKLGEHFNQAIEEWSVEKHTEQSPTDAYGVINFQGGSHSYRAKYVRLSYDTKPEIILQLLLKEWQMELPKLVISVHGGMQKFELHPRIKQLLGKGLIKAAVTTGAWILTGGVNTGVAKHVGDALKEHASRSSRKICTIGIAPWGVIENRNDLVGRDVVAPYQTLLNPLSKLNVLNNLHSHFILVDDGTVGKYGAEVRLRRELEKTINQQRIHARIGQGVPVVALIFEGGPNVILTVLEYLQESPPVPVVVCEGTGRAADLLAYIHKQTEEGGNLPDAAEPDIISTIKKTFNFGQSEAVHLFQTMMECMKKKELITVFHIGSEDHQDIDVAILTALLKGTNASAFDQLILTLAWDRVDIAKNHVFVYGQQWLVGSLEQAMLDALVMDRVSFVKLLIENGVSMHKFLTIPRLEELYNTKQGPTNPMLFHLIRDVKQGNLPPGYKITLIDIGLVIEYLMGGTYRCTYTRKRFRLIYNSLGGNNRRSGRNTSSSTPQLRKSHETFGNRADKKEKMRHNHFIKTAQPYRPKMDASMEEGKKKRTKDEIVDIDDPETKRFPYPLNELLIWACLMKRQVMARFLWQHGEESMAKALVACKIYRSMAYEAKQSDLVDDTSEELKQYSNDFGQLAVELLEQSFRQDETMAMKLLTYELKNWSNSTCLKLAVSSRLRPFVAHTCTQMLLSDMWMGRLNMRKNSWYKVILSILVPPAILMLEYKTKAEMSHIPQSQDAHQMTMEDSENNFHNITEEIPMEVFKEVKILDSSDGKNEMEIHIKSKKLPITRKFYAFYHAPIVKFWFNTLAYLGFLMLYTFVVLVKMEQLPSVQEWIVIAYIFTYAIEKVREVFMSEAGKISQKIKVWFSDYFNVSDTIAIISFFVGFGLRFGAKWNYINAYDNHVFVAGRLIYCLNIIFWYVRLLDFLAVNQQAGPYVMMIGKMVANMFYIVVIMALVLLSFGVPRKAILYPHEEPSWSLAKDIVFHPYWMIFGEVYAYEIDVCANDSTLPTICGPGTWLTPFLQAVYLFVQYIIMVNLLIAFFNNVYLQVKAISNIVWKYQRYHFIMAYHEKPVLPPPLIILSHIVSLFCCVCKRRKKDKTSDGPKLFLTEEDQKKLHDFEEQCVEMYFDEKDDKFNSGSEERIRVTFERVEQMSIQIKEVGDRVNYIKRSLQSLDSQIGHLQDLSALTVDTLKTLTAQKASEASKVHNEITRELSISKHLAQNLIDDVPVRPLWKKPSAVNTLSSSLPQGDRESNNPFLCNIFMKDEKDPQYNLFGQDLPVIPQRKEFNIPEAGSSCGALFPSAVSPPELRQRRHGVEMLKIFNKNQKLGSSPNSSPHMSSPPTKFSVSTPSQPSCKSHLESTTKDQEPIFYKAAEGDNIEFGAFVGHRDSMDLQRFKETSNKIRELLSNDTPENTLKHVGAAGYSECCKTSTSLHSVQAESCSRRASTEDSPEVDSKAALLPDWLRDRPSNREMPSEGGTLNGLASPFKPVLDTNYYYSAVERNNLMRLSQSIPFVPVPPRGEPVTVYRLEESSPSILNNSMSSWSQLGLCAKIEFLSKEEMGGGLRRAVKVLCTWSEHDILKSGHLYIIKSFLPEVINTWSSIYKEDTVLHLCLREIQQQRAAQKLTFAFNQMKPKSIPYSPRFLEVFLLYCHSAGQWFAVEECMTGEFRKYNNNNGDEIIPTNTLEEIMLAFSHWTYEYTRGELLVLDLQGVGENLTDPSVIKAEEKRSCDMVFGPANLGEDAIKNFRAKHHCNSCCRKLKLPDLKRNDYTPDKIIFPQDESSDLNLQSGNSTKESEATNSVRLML

With `Oc1ccc2c3c1O[C@H]1c4oc5ccccc5c4C[C@@]4(O)[C@@H](C2)N(CC2CC2)CC[C@]314` [NAL, naltriben] the pEC50 was roughly 4.35.
